Laboratory results as given in paper PMC9203742 (Nature Communications, 2022).
Where “and” joins values, the source holds several entries; their conditions need not be identical. Equal values may be shown once.

What was measured:
[1] = test system: HEK293 cells, control vector; assay: Inositol-1-phosphate (IP1) accumulation assay, HEK293 cells transfected with control vector; format: cell-based; conditions: 30 µM Pd(bpy); Vec
[2] = test system: HEK293 cells, vector control; assay: Fura-2 Ca2+ imaging in HEK293 cells transfected with control vector (Vec); format: cell-based; conditions: single-cell values #1-#20
mGlu1 P58H/N264H mutant = molecular target: T1, mGlu1 P58H/N264H mutant (Rattus norvegicus, UniProt P23385, N264H/P58H); assay: Fura-2 Ca2+ imaging in HEK293 cells expressing mGlu1 P58H/N264H; format: cell-based
T1 construct: expressed in transfected cells; host or cells: HEK293

mGlu1 P57H/N264H mutant = molecular target: T2, mGlu1 P57H/N264H mutant (Rattus norvegicus, UniProt P23385, N264H/P57H); assay: Fura-2 Ca2+ imaging in HEK293 cells expressing mGlu1 P57H/N264H; format: cell-based; conditions: single-cell values #1-#20; P57H/N264H
T2 construct: expressed in transfected cells; host or cells: HEK293

[3] = test system: mGlu1 construct not given; assay: Fura-2 Ca2+ imaging in HEK293 cells, source data Suppl Fig1, middle group (c9-c17); construct not given; format: cell-based, rat; conditions: single-cell values, cells #15-#20; middle group of third block
Excerpt: Supplement 41467_2022_30828_MOESM6_ESM.zip/Ojima et al_source data_Suppl Fig.xlsx, sheet "Suppl Fig1" | column: Glu; NiCl2; CuCl2; ZnCl2; CdCl2; Na2PdCl2; Pd(bpy)

mGlu1(N264H) mutant = molecular target: T3, mGlu1(N264H) mutant (Rattus norvegicus, UniProt P23385, N264H); assay: Fura-2 Ca2+ imaging in HEK293 cells expressing mGlu1(N264H); format: cell-based
T3 construct: expressed in transfected cells; host or cells: HEK293

PC12 cells = assay: NGF-induced neurite outgrowth in differentiated PC12 cells; format: cell-based; design: neurite outgrowth, individual values #1-#20 (Fig.4b): unit not given here; conditions: for neurite outgrowth, individual values #1-#20 (Fig.4b): differentiated PC12 cells
Protocol: After incubation for 3 days, PC12 cells bearing neurites were randomly selected, and the length of the longest neurite in each cell was measured using ImageJ package Fiji.

WT mGlu1 = molecular target: T4, WT mGlu1 (Rattus norvegicus, UniProt P23385); format: cell-based; conditions: single-cell values #1-#20; WT
T4 construct: expressed in transfected cells; host or cells: HEK293

mGlu1 E60H/N264H mutant = molecular target: T5, mGlu1 E60H/N264H mutant (Rattus norvegicus, UniProt P23385, E60H/N264H); assay: Fura-2 Ca2+ imaging in HEK293 cells expressing mGlu1 E60H/N264H; format: cell-based; conditions: single-cell values #1-#20; E60H/N264H
T5 construct: expressed in transfected cells; host or cells: HEK293

mGlu1 A59H/N264H mutant = molecular target: T6, mGlu1 A59H/N264H mutant (Rattus norvegicus, UniProt P23385, A59H/N264H); assay: Fura-2 Ca2+ imaging in HEK293 cells expressing mGlu1 A59H/N264H; format: cell-based
T6 construct: expressed in transfected cells; host or cells: HEK293

primary cortical neurons = assay: Fura-2 Ca2+ imaging (abnormal Ca2+ response) in cultured cortical neurons; conditions: 1 µM Pd complex
[4] = HEK293 cells, Fura-2, read-out: EC50, Ca2+ response (Δratio)

T2 sequence (P23385 19-1199 P57H/N264H): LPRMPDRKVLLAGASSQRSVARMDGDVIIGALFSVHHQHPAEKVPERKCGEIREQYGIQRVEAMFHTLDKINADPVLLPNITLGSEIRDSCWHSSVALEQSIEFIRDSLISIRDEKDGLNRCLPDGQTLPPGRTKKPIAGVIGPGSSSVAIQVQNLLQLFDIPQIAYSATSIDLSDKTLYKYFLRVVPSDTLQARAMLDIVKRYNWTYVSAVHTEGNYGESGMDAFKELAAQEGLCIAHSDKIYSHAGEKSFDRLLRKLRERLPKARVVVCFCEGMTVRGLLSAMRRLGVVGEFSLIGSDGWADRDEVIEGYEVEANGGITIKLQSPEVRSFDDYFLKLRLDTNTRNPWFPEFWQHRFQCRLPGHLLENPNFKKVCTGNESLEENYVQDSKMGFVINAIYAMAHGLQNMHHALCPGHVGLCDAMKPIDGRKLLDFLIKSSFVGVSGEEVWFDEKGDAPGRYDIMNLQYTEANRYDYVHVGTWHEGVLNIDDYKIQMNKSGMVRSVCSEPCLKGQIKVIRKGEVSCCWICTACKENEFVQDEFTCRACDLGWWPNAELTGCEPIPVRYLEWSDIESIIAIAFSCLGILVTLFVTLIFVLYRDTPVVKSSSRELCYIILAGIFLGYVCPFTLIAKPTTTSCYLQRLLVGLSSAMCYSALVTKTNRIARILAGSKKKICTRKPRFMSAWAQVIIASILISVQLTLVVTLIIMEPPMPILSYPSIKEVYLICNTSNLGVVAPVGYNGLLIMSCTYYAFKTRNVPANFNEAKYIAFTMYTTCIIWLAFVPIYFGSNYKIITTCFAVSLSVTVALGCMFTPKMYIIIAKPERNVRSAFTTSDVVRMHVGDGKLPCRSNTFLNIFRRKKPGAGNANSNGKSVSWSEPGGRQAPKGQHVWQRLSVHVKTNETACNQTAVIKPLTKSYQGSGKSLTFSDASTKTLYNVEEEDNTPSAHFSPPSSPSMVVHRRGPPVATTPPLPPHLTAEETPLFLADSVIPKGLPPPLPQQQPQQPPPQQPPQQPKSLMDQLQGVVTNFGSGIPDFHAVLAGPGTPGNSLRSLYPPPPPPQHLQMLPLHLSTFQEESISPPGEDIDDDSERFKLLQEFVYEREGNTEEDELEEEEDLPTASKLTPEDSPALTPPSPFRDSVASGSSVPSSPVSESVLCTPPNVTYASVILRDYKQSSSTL
T5 sequence (P23385 19-1199 E60H/N264H): as the sequence (P23385 19-1199 P57H/N264H) above, with H39P, E42H counted along it
T1 sequence (P23385 19-1199 P58H/N264H): as the sequence (P23385 19-1199 P57H/N264H) above, with H39P, P40H counted along it
T4 sequence (P23385 19-1199): as the sequence (P23385 19-1199 P57H/N264H) above, with H39P, H246N counted along it
T3 sequence (P23385 19-1199 N264H): as the sequence (P23385 19-1199 P57H/N264H) above, with H39P counted along it
T6 sequence (P23385 19-1199 A59H/N264H): as the sequence (P23385 19-1199 P57H/N264H) above, with H39P, A41H counted along it

O=[N+]([O-])[O-].O=[N+]([O-])[O-].[Pd+2].c1ccc(-c2ccccn2)nc1 [Pd(bpy), Pd(bpy)(NO3)2]
IP1 accumulation, single experiments [1]: 1.069 and 0.9695 and 0.8004 | Ca2+ response of individual cells (source data Suppl Fig1), Vec [2]: -0.004731 and 0.3238 and -0.02602 and 0.02754 and -0.0031 and 0.006285 and -0.02257 and 0.004254 and 0.003354 and -0.004338 and -0.001023 and 0.0058 and -0.01141 and 0.05108 and 0.0005846 and 0.297 and 0.004723 and 0.01628 and 0.03037 | EC50 (mGlu1 P58H/N264H mutant; [4]): 1.2 µM | Ca2+ response of individual cells (source data Suppl Fig1), P58H/N264H (mGlu1 P58H/N264H mutant; single-cell values #1-#20, P58H/N264H): 1.407 and 1.235 and 0.2781 and 0.4382 and 0.4216 and 0.8249 and 0.694 and 0.5635 and 0.8179 and 0.3484 and 1.211 and 0.7928 and 0.02745 and 0.7691 and 1.112 and 0.5883 and 0.4797 and 0.3836 and 0.0272 and 0.6649 | Ca2+ response of individual cells (source data Suppl Fig1), P57H/N264H (mGlu1 P57H/N264H mutant): 1.496 and 0.4197 and 0.3632 and 0.5618 and 0.3459 and 0.2699 and 0.5435 and -0.005777 and 0.04309 and 0.04215 and 0.5777 and 1 and 0.77 and 0.6187 and 0.5778 and -0.002723 and 0.1859 and 0.08165 and 0.3295 and 0.5272 | Ca2+ response of individual cells (source data, sheet Suppl Fig1) [3]: 0.04373 and -0.04935 and -0.001077 and -0.04196 and -0.007292 and 0.01256 | Positive allosteric effect: dose-dependency of glutamate-induced responses (mGlu1(N264H) mutant; 3 µM Pd(bpy) in the presence of 10 µM LY367385): unaffected | Time to basal level after wash-out by culture medium (mGlu1(N264H) mutant; 10 µM agonist, n = 15): 49.0 ± 6.4 s | EC50 (mGlu1(N264H) mutant; [4]): 1.6 µM | Pd(bpy) off (mGlu1(N264H) mutant; ave of 15 cells): 49 s | Pd(bpy) on (mGlu1(N264H) mutant; ave of 15 cells): 58 s | Effect on 100 μM glutamate-induced response (mGlu1(N264H) mutant; in the presence of LY367385, P = 0.3803): not enhanced | Ca2+ response to Pd complex, individual cells #1-#20 (Fig.4e) (mGlu1(N264H) mutant; single-cell values): 0.1987 and 0.007031 and 0.6462 and 0.6597 and 0.6897 and 0.134 and 0.5276 and 0.6019 and 0.1524 and 0.7025 and 0.5861 and 1.131 and 0.7531 and 0.5352 and 0.5053 and 0.4553 and 0.9996 and 0.7233 and 0.7477 and 0.221 | Neurite outgrowth (PC12 cells; 100 μM, 3 days, NGF-differentiated): not affected | neurite outgrowth, individual values #1-#20 (Fig.4b) (PC12 cells; [Pd(bpy)] 1 µM): 135.681 and 134.669 and 132.267 and 127.77 and 127.752 and 123.426 and 118.782 and 113.497 and 109.51 and 107.296 and 102.296 and 95.2965 and 92.9706 and 197.35 and 182.054 and 180.267 and 162.995 and 150.48 and 140.539 and 136.598 | neurite outgrowth, individual values #1-#20 (Fig.4b) (PC12 cells; [Pd(bpy)] 3 µM): 125.971 and 116.953 and 113.154 and 109.598 and 107.841 and 88.6396 and 86.7696 and 85.5685 and 80.0833 and 79.598 and 79.4975 and 76.3259 and 73.1127 and 263.255 and 244.078 and 176.493 and 155.64 and 151.309 and 138.368 and 127.894 | neurite outgrowth, individual values #1-#20 (Fig.4b) (PC12 cells; [Pd(bpy)] 10 µM): 140.024 and 139.953 and 126.728 and 122.326 and 118.61 and 116.811 and 111.912 and 108.941 and 106.468 and 103.983 and 102.368 and 92.3553 and 91.5269 and 184.551 and 173.426 and 168.711 and 166.853 and 164.196 and 142.426 and 140.681 | neurite outgrowth, individual values #1-#20 (Fig.4b) (PC12 cells; [Pd(bpy)] 30 µM): 110.627 and 105.752 and 95.8406 and 93.1838 and 90.6274 and 88.9706 and 84.7696 and 80.5685 and 78.2548 and 76.598 and 71.4264 and 67.1127 and 62.669 and 292.527 and 200.326 and 143.51 and 135.196 and 131.456 and 117.853 and 113.811 | neurite outgrowth, individual values #1-#20 (Fig.4b) (PC12 cells; [Pd(bpy)] 100 µM): 136.698 and 130.77 and 122.681 and 121.338 and 121.125 and 116.924 and 109.267 and 109.255 and 105.042 and 102.225 and 101.456 and 94.5391 and 93.196 and 186.64 and 184.25 and 163.439 and 159.066 and 147.882 and 142.225 and 138.024 | Ca2+ response of individual cells (source data Suppl Fig1), WT (WT mGlu1): -0.002508 and 0.03248 and -0.005946 and 0.001185 and -0.01881 and -0.01405 and 0.05177 and 0.006038 and 0.01295 and 0.02212 and 0.002477 and -0.0007231 and 0.1314 and 0.1045 and 0.02565 and -0.005715 and 0.004592 and -0.01058 and -0.003931 and 0.0524 | Ca2+ response of individual cells (source data Suppl Fig1), E60H/N264H (mGlu1 E60H/N264H mutant): -0.015 and 0.1464 and 0.05592 and 0.009469 and 0.1218 and 0.005362 and 1.129 and 0.9384 and 0.8641 and 0.6693 and 0.02784 and 0.0255 and 0.002069 and -0.0022 and -0.0079 and 0.08848 and 0.002385 and -0.01194 and -0.01146 and 0.1752 | EC50 (mGlu1 A59H/N264H mutant; [4]): 3.8 µM | Ca2+ response of individual cells (source data Suppl Fig1), A59H/N264H (mGlu1 A59H/N264H mutant; single-cell values #1-#20, A59H/N264H): 0.6362 and 0.8074 and 0.5582 and 0.806 and 0.7717 and -0.01028 and 0.5677 and 0.7063 and 0.5602 and 0.7126 and 0.6578 and 1.118 and 1.1499 and 0.77 and 0.5325 and 0.4993 and 0.7176 and 0.6258 and 0.8578 and 0.6525 | abnormal Ca2+ response, ave (Fig.4d) (primary cortical neurons): 0.03652
